Experimental data from paper PMC6143625, “A high throughput screen for next-generation leads targeting malaria parasite transmission” (Nature Communications, 2018).
Values joined by “and” are separate entries in the source; they are usually repeats but may differ in a detail not shown here. Equal values may be shown once.

Key:
[1] = system: P. falciparum transmission to Anopheles stephensi mosquitoes; assay: P. falciparum standard membrane-feeding assay (SMFA), luciferase oocyst readout; type: in vivo, Plasmodium falciparum; details: 10 µM, indirect mode
Protocol: SMFAs were performed commercially by TropiQ Health Sciences (Nijmegen, The Netherlands)[26]. Cultures of mature stage V gametocytes of P. falciparum expressing a GFP-Luciferase fusion protein under the control of the hsp70 promoter were treated with DMSO or 10 µM of test compound for 24 h (indirect mode). They were then mixed with uninfected erythrocytes and pelleted. The cell pellet was resuspended in human serum to form the blood meal and fed to Anopheles stephensi mosquitoes. […] Eight days after infection, mosquitoes were individually processed and their lysate assessed for luciferase activity in comparison to uninfected mosquitoes.

[2] = system: NF54 stage V gametocytes; assay: Gametocytocidal MitoTracker-based viability assay (SaLSSA); type: cell-based, Plasmodium falciparum NF54; details: for IC50: Plasmodium falciparum, NF54, 72h incubation, read-out: Pf Stage V GCT (mitotracker assay) IC50
Protocol: As another independent assessment of the metabolic viability of compound-treated stage V gametocytes, the Saponin-lysis Sexual Stage Assay (SaLSSA) was employed. A volume of 100 nl of test compounds were pre-dispensed in 384-well plates (781091-2B, Greiner) in 12-point dose response (25 µM to 1.41 × 10^−4 µM), prior to the addition of synchronous NF54 stage V gametocytes (40 µl at 0.70% gametocytaemia). Assay plates were then incubated for 72 h in a low oxygen environment (92% N2, 5% CO2, 3%O2) before a 10 µl MitoTracker Red CMXRos (2.5 µM) and saponin solution (0.13%w/v) was added. Plates were returned to 37 °C for 1 h to allow for complete red blood cell lysis, after which viable gametocytes were detected using an Operetta high-content imaging system. Analysis was performed using the Harmony package software, with potency calculated relative to puromycin (positive control) and DMSO (negative control).

[3] = system: P. falciparum male gametocytes; assay: Pf DGFA wash-out format, male readout; type: cell-based; details: Plasmodium falciparum; 48h preincubation/wash-out
[4] = system: P. falciparum female gametocytes; assay: Pf DGFA wash-out format, female readout; type: cell-based; details: Plasmodium falciparum; 48h preincubation/wash-out
[5] = system: P. falciparum female gamete formation; assay: Pf DGFA add-in format, female readout; type: cell-based; details: Plasmodium falciparum; 0h preincubation/add-in
Protocol: In profiling mode, the Pf DGFA was performed in 96-well plates[23] in wash-out and add-in formats to aid manual manipulation steps. In the wash-out format, gametocytes were incubated for 24 h with test compounds in round-bottomed 96 well plates and then culture medium replaced three times over 6 h, to remove as much of the compound as possible from the well. […] In add-in format, gametocytes were added directly to flat-bottomed 96-well plates containing test compounds, ookinete medium and anti-Pfs25.

[6] = system: P. berghei strain CTRPpGFP early mosquito stage (ookinete) development; assay: P. berghei ookinete development assay (Pb ODA); type: cell-based, Plasmodium berghei; details: for IC50: Plasmodium berghei, 24h incubation
Protocol: All mouse procedures were performed in accordance with the UK Animals (Scientific Procedures) Act (PPL 70/7185) and approved by the Imperial College Animal Welfare and Ethical Review Body (AWERB). The ability of test compounds to inhibit P. berghei early mosquito stage development was tested in the Ookinete Development Assay[37] with a few exceptions. Anaesthetised 6- to 8-week-old female Tucks Ordinary (TO) mice infected with P. berghei strain CTRPpGFP[38] were rapidly exsanguinated by cardiac puncture and 500 µl of blood diluted in 25 ml of ookinete medium supplemented with 20% foetal bovine serum. Immediately the blood/medium mixture was dispensed by multichannel pipette into 384 well plates containing pre-plated test compounds. 10 µM cycloheximide and DMSO were used as the positive and negative controls, respectively. Plates were stored in the dark in a humidified incubator at 18 °C for 24 h. Ookinete production was imaged by fluorescence microscopy of GFP expression under the ookinete-specific CTRP promoter using a Nikon Ti-E widefield microscope and ×10 objective. Ookinete production was quantified using ICY and percentage inhibition calculated as above with reference to positive and negative controls.

[7] = system: P. falciparum stage V male gametocytes (male gamete formation); assay: P. falciparum dual gamete formation assay (Pf DGFA), male readout (exflagellation), 48 h carry-over format; type: cell-based, Plasmodium falciparum NF54; details: Plasmodium falciparum, 24h preincubation/carry-over
[8] = system: HepG2 human cells; design: method as in http://dx.doi.org/10.6019/CHEMBL3507680; details: ref http://dx.doi.org/10.6019/CHEMBL3507680; cited from earlier work
[9] = system: P. berghei 507 strain in mice, transmission to Anopheles stephensi; assay: P. berghei mosquito (direct) feeding assay in infected mice; type: in vivo, Plasmodium berghei; details: per mouse, 50mg/kg, listed as DDD504, 50 mg/kg
Protocol: Six- to eight-week female T0 mice were treated with phenylhydrazine 3 days prior to intraperitoneal (IP) inoculation with 100 µl of mouse blood infected with the constitutively GFP expressing P. berghei 507 strain[39]. On day 3 after infection, thin blood smears were taken from tail blood to quantify parasitaemia and gametocytaemia. […] […] Twenty-four hours after feeding, unfed mosquitoes were removed and remaining mosquitoes maintained for a further 9 days on sucrose solution. Mosquito midguts were then dissected, imaged and oocysts quantified by semi-automated computer analysis.

SMILES	prevalence of infection, % of the DMSO control [1] [%]	mean normalised luciferase intensity ([1]; 24 h gametocyte incubation, oocysts 8 days later) [arbitrary units]	IC50 [2] [µM]	IC50 [3] [µM]	IC50 [4] [µM]	IC50 [5] [µM]	IC50 [6] [µM]	IC50 [7] [µM]	%Inh HepG2 @10uM [8] [%]	activity in P. berghei ookinete development assay ([6]; profiling)	Asexual parasitemia (%) Before treatment ([9]; baseline)	Gametocytemia (%) Before treatment ([9]; baseline)	Asexual parasitemia (%) 24hr After treatment [9]	Gametocytemia (%) 24hr After treatment [9]	activity in the mitotracker assay ([2]; profiling)
O=C(CCl)Nc1ccc(Br)cc1 [BPCA, N-(4-bromophenyl)-2-chloroacetamide]	25.12	5.27	–	–	–	–	–	–	–	–	–	–	–	–	–
CC(=O)c1c(C)nn(CC(=O)Nc2ccc(Br)cc2)c1C [DDD01027599]	–	–	5.55	0.97	3.11	> 10	> 12.5	4.03	4.72	–	–	–	–	–	–
O=S(=O)(NCC1(O)CCOc2ccccc21)c1ccccc1F (stereo not drawn) [DDD01028073]	–	–	> 25	> 12.5	> 12.5	> 10	0.3	0.58	-4.25	–	–	–	–	–	–
Cc1ccc(S(=O)(=O)NCC2(O)CCOc3ccccc32)s1 (stereo not drawn) [DDD01028074]	–	–	> 25	> 12.5	> 12.5	> 10	0.29	0.79	-4.01	–	–	–	–	–	–
O=S(=O)(NCC1(O)CCOc2ccccc21)c1ccc(Cl)s1 (stereo not drawn) [DDD01028075]	–	–	> 25	> 12.5	> 12.5	> 10	0.34	1.32	-6.65	–	–	–	–	–	–
O=S(=O)(NCC1(O)CCOc2ccccc21)c1ccccc1Br (stereo not drawn) [DDD01028076]	–	–	> 25	> 12.5	> 12.5	> 10	0.22	0.48	-0.163	–	–	–	–	–	–
COc1cccc(-n2ccc3nc(N4CCCC4)ncc3c2=O)c1 [DDD01034957]	–	–	> 25	–	–	> 10	> 12.5	> 12.5	-4.05	–	–	–	–	–	–
O=S(=O)(NCC1(O)CCOc2ccccc21)c1cccs1 (stereo not drawn) [DDD01035879]	–	–	> 25	> 12.5	> 12.5	> 10	0.29	0.89	3.15	–	–	–	–	–	–
Cc1cccc(NC(=O)c2cccc(OCc3nnnn3C)c2)n1 [DDD01038630]	–	–	–	–	–	> 10	> 12.5	> 12.5	18.75	–	–	–	–	–	–
CC(c1ccco1)N(C(=O)CNc1ccc(C#N)cc1)C1CC1 (stereo not drawn) [DDD01062645]	–	–	> 25	> 12.5	> 12.5	5.05	> 12.5	> 12.5	4.38	inactive	–	–	–	–	–
Cc1ccc(CN(c2cc(C)nc3nc(C(F)(F)F)nn23)C2CC2)cc1 [DDD01063654]	–	–	> 10	–	–	> 10	> 12.5	> 12.5	0.83	–	–	–	–	–	–
Cc1cc(C)c(CNCC(O)c2ccc(F)c(F)c2)c(C)c1.Cl (stereo not drawn) [DDD01065539]	–	–	–	–	–	> 10	> 12.5	> 12.5	-11.40	–	–	–	–	–	–
CC(NCC1CCN(CCO)CC1)c1ccc(OC(F)(F)F)cc1 (stereo not drawn) [DDD01073716]	–	–	7.07	1.08	1.22	> 10	> 25	11	-2.01	–	–	–	–	–	–
CN(Cc1cccc(F)c1)C(=O)CS(=O)(=O)Cc1c(Cl)cccc1Cl [DDD01077188]	–	–	–	–	–	> 10	> 12.5	> 12.5	5.76	–	–	–	–	–	–
CN1CCC(NCC(O)c2cccc(OCc3ccccc3)c2)CC1 (stereo not drawn) [DDD01079164]	–	–	4.97	1.3	1.07	> 10	> 25	6.04	4.18	–	–	–	–	–	–
CNc1cc(C)nc(NC2CCCN(C3Cc4ccccc4C3)C2)n1 (stereo not drawn) [DDD01243506]	–	–	–	–	–	> 10	> 12.5	> 12.5	28.56	–	–	–	–	–	–
CC(c1cccs1)N(C)Cc1cnc(-c2ccccn2)nc1 (stereo not drawn) [DDD01246628]	–	–	0.2	–	–	> 10	> 25	> 25	3.52	–	–	–	–	–	–
CC(C)CN1CCn2nc(CNc3ncnc4[nH]ccc34)cc2C1 [DDD01249504]	–	–	> 25	2.74	> 25	> 10	> 25	1.83	7.26	–	0.74% and 0.98%	0.21% and 0.15%	5.35% and 7.03%	1.21% and 1.88%	–
CCCn1nccc1C(=O)N1CCN(C2CCc3ccccc3C2)CC1 (stereo not drawn) [DDD01251134]	–	–	–	–	–	> 10	> 12.5	> 12.5	-7.89	–	–	–	–	–	–
Cc1nn(C)c(Oc2ccc(Cl)cc2)c1CN1CCC(CN)C1 (stereo not drawn) [DDD01254274]	–	–	> 12.5	2.84	> 25	> 10	> 25	> 25	-8.55	–	–	–	–	–	–
CCc1ccc(C2c3nc[nH]c3CCN2Cc2nccn2CC)nc1 (stereo not drawn) [DDD01254473]	–	–	0.08	5.74	0.71	> 10	> 12.5	> 25	33.1	–	–	–	–	–	submicromolar
CCOc1ccc2ccccc2c1CNCC1CCNCC1.Cl.Cl [DDD01255740]	–	–	3.57	0.67	1.65	> 10	> 12.5	4.1	9.2	–	–	–	–	–	–
Cc1ccc(-c2cc(C(=O)NCCC3=CCCCC3)[nH]n2)o1 [DDD01255968]	–	–	> 25	2.19	> 12.5	> 10	> 12.5	1.17	-10.6	–	–	–	–	–	–
CCn1ncc(Br)c1CN(C)S(=O)(=O)c1ccc(C)cc1 [DDD01259521]	–	–	> 25	–	–	> 10	> 12.5	> 12.5	8.37	–	–	–	–	–	–
c1cnnc(N2CCCC2CNc2ncnc3sccc23)c1 (stereo not drawn) [DDD01299704]	–	–	–	–	–	> 10	> 12.5	> 12.5	-7.82	–	–	–	–	–	–
